Measurements: ChEMBL document CHEMBL1153966, “Synthesis, cytotoxicity, and haemolytic activity of chacotrioside lupane-type neosaponins and their germanicane-type rearrangement products” (Bioorg Med Chem Lett, 2009)

Key:
[1] = Toxicity in sheep erythrocytes assessed as induction of hemolysis; assay type: cell-based, Ovis aries, Erythrocyte; details: read-out: HD50 (the source's name)
A549 = assay: Cytotoxicity against human A549 cells by resazurin reduction test; assay type: functional, cell-based
DLD-1 = assay: Cytotoxicity against human DLD1 cells by resazurin reduction test; assay type: functional, cell-based
MCF7 = assay: Cytotoxicity against human MCF7 cells by resazurin reduction test; assay type: functional, cell-based
PC-3 = assay: Cytotoxicity against human PC3 cells by resazurin reduction test; assay type: functional, cell-based
[2] = Cytotoxicity against human WS1 cells by resazurin reduction test; assay type: cell-based

SMILES: C[C@@H]1O[C@@H](O[C@H]2[C@H](O[C@H]3CC[C@]4(C)[C@H]5CC[C@@H]6[C@H]7[C@H]8OC[C@@]7(CCC8(C)C)CC[C@@]6(C)[C@]5(C)CC[C@H]4C3(C)C)O[C@H](CO)[C@@H](O[C@@H]3O[C@@H](C)[C@H](O)[C@@H](O)[C@H]3O)[C@@H]2O)[C@H](O)[C@H](O)[C@H]1O
- HC50 [1]: 90 µM
- IC50 (A549): 14 µM
- IC50 (DLD-1): 13 µM
- IC50 (MCF7): 15 µM
- IC50 (PC-3): 13 µM
- IC50 [2]: 9 µM

SMILES: C[C@@H]1O[C@@H](O[C@H]2[C@H](O[C@H]3CC[C@]4(C)[C@H]5CC[C@@H]6[C@H]7[C@H]8OC(=O)[C@@]7(CCC8(C)C)CC[C@@]6(C)[C@]5(C)CC[C@H]4C3(C)C)O[C@H](CO)[C@@H](O[C@@H]3O[C@@H](C)[C@H](O)[C@@H](O)[C@H]3O)[C@@H]2O)[C@H](O)[C@H](O)[C@H]1O
- HC50 [1]: 8 µM
- IC50 (A549): 13 µM
- IC50 (DLD-1): 14 µM
- IC50 (MCF7): 18 µM
- IC50 (PC-3): 10 µM
- IC50 [2]: 3.8 µM

SMILES: C=C(C)[C@@H]1CC[C@]2(C)CC[C@]3(C)[C@H](CC[C@@H]4[C@@]5(C)CC[C@H](O[C@@H]6O[C@H](CO)[C@@H](O[C@@H]7O[C@@H](C)[C@H](O)[C@@H](O)[C@H]7O)[C@H](O)[C@H]6O[C@@H]6O[C@@H](C)[C@H](O)[C@@H](O)[C@H]6O)C(C)(C)[C@@H]5CC[C@]43C)[C@@H]12
- HC50 [1]: 30 µM
- IC50 (A549): > 50 µM
- IC50 (DLD-1): > 50 µM
- IC50 (MCF7): > 50 µM
- IC50 (PC-3): > 50 µM
- IC50 [2]: > 50 µM

SMILES: C=C(C)[C@@H]1CC[C@]2(CO)CC[C@]3(C)[C@H](CC[C@@H]4[C@@]5(C)CC[C@H](O[C@@H]6O[C@H](CO)[C@@H](O[C@@H]7O[C@@H](C)[C@H](O)[C@@H](O)[C@H]7O)[C@H](O)[C@H]6O[C@@H]6O[C@@H](C)[C@H](O)[C@@H](O)[C@H]6O)C(C)(C)[C@@H]5CC[C@]43C)[C@@H]12
- HC50 [1]: > 100 µM
- IC50 (A549): > 50 µM
- IC50 (DLD-1): > 50 µM
- IC50 (MCF7): > 50 µM
- IC50 (PC-3): > 50 µM
- IC50 [2]: > 50 µM

SMILES: C=C(C)[C@@H]1CC[C@]2(C(=O)O)CC[C@]3(C)[C@H](CC[C@@H]4[C@@]5(C)CC[C@H](O[C@@H]6O[C@H](CO)[C@@H](O[C@@H]7O[C@@H](C)[C@H](O)[C@@H](O)[C@H]7O)[C@H](O)[C@H]6O[C@@H]6O[C@@H](C)[C@H](O)[C@@H](O)[C@H]6O)C(C)(C)[C@@H]5CC[C@]43C)[C@@H]12
- HC50 [1]: > 100 µM
- IC50 (A549): > 50 µM
- IC50 (DLD-1): > 50 µM
- IC50 (MCF7): > 50 µM
- IC50 (PC-3): > 50 µM
- IC50 [2]: > 50 µM

SMILES: CC1(C)CC[C@]23CC[C@]4(C)[C@H](CC[C@@H]5[C@@]6(C)CC[C@H](O)C(C)(C)[C@@H]6CC[C@]54C)[C@H]2[C@H]1OC3=O
- HC50 [1]: > 100 µM
- IC50 (A549): > 50 µM
- IC50 (DLD-1): > 50 µM
- IC50 (MCF7): > 50 µM
- IC50 (PC-3): > 50 µM
- IC50 [2]: > 50 µM

SMILES: CC1(C)CC[C@]23CC[C@]4(C)[C@H](CC[C@@H]5[C@@]6(C)CC[C@H](O)C(C)(C)[C@@H]6CC[C@]54C)[C@H]2[C@H]1OC3 [ALLOBETULIN]
- HC50 [1]: > 100 µM
- IC50 (A549): > 50 µM
- IC50 (DLD-1): > 50 µM
- IC50 (MCF7): > 50 µM
- IC50 (PC-3): > 50 µM
- IC50 [2]: > 50 µM

SMILES: C=C(C)[C@@H]1CC[C@]2(C(=O)O)CC[C@]3(C)[C@H](CC[C@@H]4[C@@]5(C)CC[C@H](O)C(C)(C)[C@@H]5CC[C@]43C)[C@@H]12 [BETULINIC ACID]
- HC50 [1]: > 100 µM
- IC50 [2]: 12 µM

SMILES: C=C(C)[C@@H]1CC[C@]2(CO)CC[C@]3(C)[C@H](CC[C@@H]4[C@@]5(C)CC[C@H](O)C(C)(C)[C@@H]5CC[C@]43C)[C@@H]12 [BETULIN]
- HC50 [1]: > 100 µM
- IC50 [2]: 3.6 µM

SMILES: C=C(C)[C@@H]1CC[C@]2(C)CC[C@]3(C)[C@H](CC[C@@H]4[C@@]5(C)CC[C@H](O)C(C)(C)[C@@H]5CC[C@]43C)[C@@H]12 [LUPEOL]
- HC50 [1]: > 100 µM
- IC50 (A549): > 50 µM
- IC50 (DLD-1): > 50 µM
- IC50 (MCF7): > 50 µM
- IC50 (PC-3): > 50 µM
- IC50 [2]: > 50 µM
